Entries after “also recorded” stand apart in the source; their conditions may differ.
Key:
[1] = test system: V. cholerae VC1 (WT) and MM920; assay: V. cholerae biofilm modulation (CLSM, crystal violet); assay type: cell-based, Vibrio cholerae; details: 900 nM CAI-1
Method: The various pathogenic indicator strains used in this study were V. cholerae strain MM920 (ACqsA AluxQ), Vibrio harveyi strain MM30 (LuxS, Tn5). To initiate biofilm formation, bacteria was grown in the absence of the V. cholerae autoinducer 1 (CAI1). In addition, the bacteria were grown in presence of: 900 nM CAI1 (Vibrio Cholerae MM920), 900 nM CAI1, 200 μM Tryptophol acetate and 200 μM Tyrosol acetate, and 200 μM Tryptophol acetate and 200 μM Tyrosol acetate.
Biofilms were grown under shaking conditions at 30° C. in 96-well plate (Thermo Scientific, Rochester, N.Y., USA). […] The stained cells were washed twice with PBS. Biofilm images were taken by CLSM (Plan-Apochromat 20×/0.8 M27, Zeiss LSM880, Germany).
For static biofilm assay, overnight cultures of V. cholerae strain MM920 was diluted 1:10 in fresh LB medium containing a final concentration of 100 μM from each Tryptophol acetate and Tyrosol acetate or DMSO (up to 1%) as control. […] One in absence of the V. cholerae autoinducer (CAI-1) and the other one in presence of 900 nM CAI-1. Biofilms were grown under non-shaking conditions at 37° C. in 96-well plate (Thermo Scientific, Rochester, N.Y., USA). […] The stained cells were washed twice with PBS. Biofilm images were taken by CLSM (Plan-Apochromat 20×/0.8 M27, Zeiss LSM880, Germany).
Biofilm matrixes of V. cholerae VC1 WT (FIGS. 23Ai and 23Aii), and the V. cholerae MM920 mutant (FIGS. 23Aiii and 23Aiv) were grown for 24 hours with or without tryptophol acetate in the growth medium, and stained using the BacLight® Dead/Live Kit to distinguish viable cells.

Peritoneal macrophages = assay: In vitro LPS stimulation of peritoneal macrophages, cytokine ELISA (24 hr); assay type: cell-based, mice; details: 100 μM, 0.1 μg/ml LPS
Method: Peritoneal macrophages were harvested using the protocol as described previously (Zhang et al., 2008). Elicited macrophages were harvested from WT mice which had received a 2.5 ml intraperitoneal administration of 3% Brewer thioglycolate broth (Sigma, UK) 72 hr prior collection.
Peritoneal macrophages cells (5×10^5/ml) were cultured with 0.1 μg/ml Lipopolysaccharides (LPS-Escherichia coli serotype 0127:B8, Sigma-Aldrich) and in the presence of 100 μM: tryptophol acetate, tyrosol acetate, dopamine HCl, caffeic acid, or combination of tryptophol acetate and tyrosol acetate, for 24 hr. Following culture, supernatants were collected and stored at −20° C. for the detection of the IL-6 cytokine. For IL-la detection, the inventors induced macrophages lysis by adding fresh RPMI medium and thawing three times.
IL-la and IL-6 levels were measured in peritoneal exudate fluids and LPS-stimulated culture supernatants by ELISA. To detect the cytokines, a R&D ELISA kit (Catalog #MLA00 and DY406, respectively) was used as per the manufacturer's instructions. A standard curve was constructed using serial dilutions of purified IL-la or IL-6 starting at a concentration of 15 ng/ml.

Compound | Biofilm of V. cholerae MM920, autoinducer alone [1] | Production of IL-6 (Peritoneal macrophages)
CCCCCCCCCC(=O)[C@@H](O)CC [CAI-1, reference compound] | disruption of biofilm integrity | –
O=C(O)/C=C/c1ccc(O)c(O)c1 [caffeic acid] | – | comparable results; also recorded: dramatically reduced

From patent publication US20220160680A1, “MICROORGANISM MIXTURES, MOLECULES DERIVED THEREFROM, AND METHODS OF USE THEREOF” (B. G. Negev Technologies and Applications Ltd., at …, priority 2018, published 2022)
